Measured values published in article PMC3874090, “Synthesis and Evaluation of Anti-acetylcholinesterase Activity of 2-(2-(4-(2-Oxo-2-phenylethyl)piperazin-1-yl) ethyl)Isoindoline-1,3-dione Derivatives with Potential Anti-Alzheimer Effects” (Iranian Journal of Basic Medical Sciences, 2013).
Where two headings read alike, the source gives them in different places.

Columns and labels:
[1] = target: T1, acetylcholinesterase from electric eel (Electrophorus electricus, UniProt O42275); experiment: biochemical; conditions: Ellman test, electric eel AChE
T1 construct: purchased Sigma-Aldrich (Steinheim, Germany) Type V-S
Protocol: Lyophilized powder of acetylcholinesterase from electric eel source (AChE, E.C. 3.1.1.7, Type V-S, 1000 unit) was purchased from Sigma-Aldrich (Steinheim, Germany). 5,5'-Dithiobis-(2-nitrobenzoic acid, DTNB), potassium dihydrogen phosphate (KH2PO4), dipotassium hydrogen phosphate (K2HPO4), potassium hydroxide (KOH), sodium hydrogen carbonate (NaHCO3), and acetylthiocholine iodide were purchased from Fluka (Buchs, Switzerland).
According to the literature, the Ellman test was performed for assessment of the anticholinesterase activity of intended compounds in vitro. […] After rapid and immediate mixing the change of absorption was measured at 412 nm. The blank reading contained 3 ml buffer, 200 µl water, 100 µl DTNB and 20 µl substrate. The reaction rates were calculated, and the percent inhibition of test compounds was determined. Each concentration was analyzed in triplicate, and IC50 ± SD values were determined graphically from inhibition curves (log inhibitor concentration vs percent of inhibition) ([21], [22]).

[2] = target: acetylcholinesterase; set-up: method as in Sugimoto and collegues [20]; conditions: in Figure 2; ref Sugimoto and collegues [20]; read-out: IC50 of lead compound; cited from earlier work
[3] = preincubated 15 min at 25 °C, pH 8.0, triplicate, read-out: IC50 (μM ± SD), acetylcholinesterase inhibitory activity

T1 sequence (O42275 24-633): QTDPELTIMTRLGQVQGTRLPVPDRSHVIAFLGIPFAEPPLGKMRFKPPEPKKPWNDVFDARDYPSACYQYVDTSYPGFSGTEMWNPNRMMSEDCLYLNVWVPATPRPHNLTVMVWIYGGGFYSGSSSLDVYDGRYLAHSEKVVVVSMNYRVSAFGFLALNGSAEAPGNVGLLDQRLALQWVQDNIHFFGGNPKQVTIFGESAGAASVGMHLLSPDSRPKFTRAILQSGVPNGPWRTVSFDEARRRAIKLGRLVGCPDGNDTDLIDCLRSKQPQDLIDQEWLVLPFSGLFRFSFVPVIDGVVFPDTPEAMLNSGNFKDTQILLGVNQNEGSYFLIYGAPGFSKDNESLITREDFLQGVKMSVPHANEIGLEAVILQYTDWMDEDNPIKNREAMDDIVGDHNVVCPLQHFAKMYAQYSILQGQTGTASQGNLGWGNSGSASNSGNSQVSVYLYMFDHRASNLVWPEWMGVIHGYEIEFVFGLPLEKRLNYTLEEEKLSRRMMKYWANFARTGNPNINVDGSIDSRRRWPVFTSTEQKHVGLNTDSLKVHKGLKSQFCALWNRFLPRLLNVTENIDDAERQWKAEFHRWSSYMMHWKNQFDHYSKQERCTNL

| Structure (SMILES) | IC50 [1, 3] [µM] | other results |
| --- | --- | --- |
| O=C(CN1CCN(CCN2C(=O)c3ccccc3C2=O)CC1)c1ccccc1 [Compound 4a, 2-(2-(4-(2-Oxo-2-phenylethyl)piperazin-1-yl)ethyl)isoindoline-1,3-dione] | 45.6 ± 2.78 |  |
| O=C(CN1CCN(CCN2C(=O)c3ccccc3C2=O)CC1)c1ccc(F)cc1 [Compound 4b, 2-(2-(4-(2-(4-Fluorophenyl)-2-oxoethyl)piperazin-1-yl)ethyl)isoindoline-1,3-dione] |  | IC50 ([1]; read-out: IC50, acetylcholinesterase inhibition): 16.4 ± 1.07 µM |
| O=C(CN1CCN(CCN2C(=O)c3ccccc3C2=O)CC1)c1cccc(Cl)c1 [Compound 4c, 2-(2-(4-(2-(3-Chlorophenyl)-2-oxoethyl)piperazin-1-yl)ethyl)isoindoline-1,3-dione] | 28.2 ± 2.3 |  |
| O=C(CN1CCN(CCN2C(=O)c3ccccc3C2=O)CC1)c1ccc(Cl)cc1Cl [Compound 4d, 2-(2-(4-(2-(2,4-Dichlorophenyl)-2-oxoethyl)piperazin-1-yl)ethyl)isoindoline-1,3-dione] | 63 ± 4.06 |  |
| O=C(CN1CCN(CCN2C(=O)c3ccccc3C2=O)CC1)c1ccc2ccccc2c1 [Compound 4e, 2-(2-(4-(2-(Naphthalen-2-yl)-2-oxoethyl)piperazin-1-yl)ethyl)isoindoline-1,3-dione] | 40.5 ± 2.47 |  |
| O=C1c2ccccc2C(=O)N1CCC1CCN(Cc2ccccc2)CC1 [Compound A] |  | IC50 [2]: 0.03 µM |
